{
  "source": "patent US4605654A",
  "about": "“2-(arylalkyloxymethyl)morpholines and the central nervous system compositions” (P. F. Medicament, priority 1984, dated 1986)",
  "key": {"[1]": {"assay": "Solubility in water"}, "[2]": {"assay": "physchem", "conditions": "water"}, "[3]": {"test_system": "5-HTP (5-hydroxytryptophan)", "assay": "5-HTP (5-hydroxytryptophan) potentiation test (Christensen et al.): head movements and tremors", "assay_type": "in vivo, mice", "conditions": "for ED50: Mus musculus, 0.25 h; for activity in the 5-HTP potentiation test: in words", "method": "The mice receive an intravenous injection of 5-HTP (100 mg/10 ml/kg) after oral administration of the compounds to be studied (25 ml/kg). Fifteen minutes after the injection of 5-HTP, the presence and intensity of head movements and tremors are noted."}, "[4]": {"test_system": "nociceptive reactions", "assay": "Heating-plate test, analgesic activity (WOOLFE and MacDONALD)", "assay_type": "in vivo", "conditions": "mouse, oral, 100 mg/kg; 30 min; plate 65° C.", "method": "The products to be tested are administered to the mouse orally. 30 minutes later, the mice are placed on a plate brought to 65° C. The nociceptive reactions are assessed objectively in terms of the licking of the forepaws. The time for this response to appear is noted.\nThe method of calculation used is that described by HARRIS L. S. and PIERSON A. K. (1964, J. Pharmacol. Exp. Ther., 143, 141-148)."}, "[5]": {"conditions": "mice, oral, 5-HTP i.v. 100 mg/10 ml/kg, observed 15 min after 5-HTP, read-out: ED50"}},
  "note": "Where a name gives a salt, the structure may show the parent alone. Read-outs that look alike come from different tables or passages of the source.",
  "data": [
    {"compound": "c1ccc(COc2ccc(COCC3CNCCO3)cc2)cc1", "note": "(stereo not drawn) [Example 42b, 2-[4-Benzyloxybenzyloxy)methyl]morpholine hydrogen oxalate]", "values": [
      {"measurement": "solubility", "setting": "[1]", "value": 10, "unit": "mg/mL"}
    ]},
    {"compound": "Cc1cccc(COCC2CNCCO2)c1", "note": "(stereo not drawn) [Example 6, 2-[(3-Methylbenzyloxy)methyl]morpholine hydrogen maleate]", "values": [
      {"measurement": "solubility", "setting": "[1]", "value": 30, "unit": "mg/mL"}
    ]},
    {"compound": "Nc1cccc(COCC2CNCCO2)c1.O=C(O)CCC(=O)O", "note": "(stereo not drawn) [Example 45, 2-[(3-Aminobenzyloxy)methyl]morpholine dihydrogen succinate]", "values": [
      {"measurement": "solubility", "setting": "[2]", "value": 120, "unit": "mg/mL"}
    ]},
    {"compound": "Clc1ccc(COCC2CNCCO2)cc1Cl", "note": "(stereo not drawn) [Example 13, 2-[(3,4-Dichlorobenzyloxy)methyl]morpholine hydrogen maleate]", "values": [
      {"measurement": "solubility", "setting": "[1]", "value": 10, "unit": "mg/mL"}
    ]},
    {"compound": "COc1cccc(COCC2CNCCO2)c1", "note": "(stereo not drawn) [Example 3, 2-[(3-Methoxybenzyloxy)methyl]morpholine hydrogen maleate]", "values": [
      {"measurement": "ED50", "setting": "[3]; [5]", "value": 10, "unit": "mg/kg"},
      {"measurement": "activity in the 5-HTP potentiation test", "setting": "[3]; mice, oral", "value": "activity"},
      {"measurement": "solubility", "setting": "[1]", "value": 10, "unit": "mg/mL"}
    ]},
    {"compound": "O=C(O)C(=O)O.Oc1ccc(COCC2CNCCO2)cc1", "note": "(stereo not drawn) [Example 42, 2-[(4-Hydroxybenzyloxy)methyl]morpholine hydrogen oxalate]", "values": [
      {"measurement": "solubility", "setting": "[2]", "value": 200, "unit": "mg/mL"}
    ]},
    {"compound": "2-[(3-Phenylpropyloxy)methyl]morpholine hydrogen oxalate [Example 16]", "values": [
      {"measurement": "activity in the 5-HTP potentiation test", "setting": "[3]; mice, oral", "value": "activity"}
    ]},
    {"compound": "COc1ccccc1COCC1CNCCO1", "note": "(stereo not drawn) [Example 2, 2-[(2-Methoxybenzyloxy)methyl]morpholine hydrogen fumarate]", "values": [
      {"measurement": "solubility", "setting": "[1]", "value": 50, "unit": "mg/mL"}
    ]},
    {"compound": "Clc1cccc(COCC2CNCCO2)c1", "note": "(stereo not drawn) [Example 9, 2-[(3-Chlorobenzyloxy)methyl]morpholine hydrogen maleate]", "values": [
      {"measurement": "ED50", "setting": "[3]; [5]", "value": 15, "unit": "mg/kg"},
      {"measurement": "activity in the 5-HTP potentiation test", "setting": "[3]; mice, oral", "value": "activity"},
      {"measurement": "PERCENTAGE ANALGESIA", "setting": "[4]", "value": 16, "unit": "%"},
      {"measurement": "solubility", "setting": "[1]", "value": 20, "unit": "mg/mL"}
    ]},
    {"compound": "COc1ccc(COCC2CNCCO2)cc1", "note": "(stereo not drawn) [Example 4, 2-[(4-methoxybenzyloxy)methyl]morpholine hydrogen oxalate]", "values": [
      {"measurement": "solubility", "setting": "[1]", "value": 40, "unit": "mg/mL"}
    ]},
    {"compound": "CC(OCC1CNCCO1)c1ccccc1", "note": "(stereo not drawn) [Example 37, 2-[(1-Phenylethyloxy)methylmorpholine hydrogen oxalate]", "values": [
      {"measurement": "solubility", "setting": "[1]", "value": 50, "unit": "mg/mL"}
    ]},
    {"compound": "c1ccc2nc(N3CCNCC3)ccc2c1", "note": "[Quipazine, reference compound]", "values": [
      {"measurement": "ED50", "setting": "[3]; po", "value": 15, "unit": "mg/kg"}
    ]},
    {"compound": "CCOc1ccccc1COCC1CNCCO1", "note": "(stereo not drawn) [Example 11, 2-[(2-Ethoxybenzyloxy)methyl]morpholine hydrogen maleate]", "values": [
      {"measurement": "ED50", "setting": "[3]; [5]", "value": 15, "unit": "mg/kg"},
      {"measurement": "activity in the 5-HTP potentiation test", "setting": "[3]; mice, oral", "value": "activity"},
      {"measurement": "PERCENTAGE ANALGESIA", "setting": "[4]", "value": 16, "unit": "%"},
      {"measurement": "solubility", "setting": "[1]", "value": 30, "unit": "mg/mL"}
    ]},
    {"compound": "Clc1ccc(COCC2CNCCO2)c(Cl)c1", "note": "(stereo not drawn) [Example 12, 2-[(2,4-Dichlorobenzyloxy)methyl]morpholine hydrogen maleate]", "values": [
      {"measurement": "solubility", "setting": "[1]", "value": 40, "unit": "mg/mL"}
    ]},
    {"compound": "Cc1ccc(COCC2CNCCO2)cc1", "note": "(stereo not drawn) [Example 7, 2-[(4-Methylbenzyloxy)methyl]morpholine hydrogen oxalate]", "values": [
      {"measurement": "solubility", "setting": "[1]", "value": 20, "unit": "mg/mL"}
    ]},
    {"compound": "c1ccc(COCC2CNCCO2)cc1", "note": "(stereo not drawn) [Example 1, 2-(benzyloxymethyl)morpholine hydrogen maleate]", "values": [
      {"measurement": "solubility", "setting": "[1]", "value": 100, "unit": "mg/mL"}
    ]},
    {"compound": "CCC(=O)O[C@](Cc1ccccc1)(c1ccccc1)[C@H](C)CN(C)C", "note": "[Dextropropoxyphene, reference compound]", "values": [
      {"measurement": "PERCENTAGE ANALGESIA", "setting": "[4]", "value": 15, "unit": "%"}
    ]},
    {"compound": "Clc1ccc(COCC2CNCCO2)cc1", "note": "(stereo not drawn) [Example 10, 2-[(4-Chlorobenzyloxy)methyl]morpholine hydrogen maleate]", "values": [
      {"measurement": "solubility", "setting": "[1]", "value": 60, "unit": "mg/mL"}
    ]},
    {"compound": "Clc1ccccc1COCC1CNCCO1", "note": "(stereo not drawn) [Example 8, 2-[(2-Chlorobenzyloxy)methyl]morpholine hydrogen maleate]", "values": [
      {"measurement": "ED50", "setting": "[3]; [5]", "value": 15, "unit": "mg/kg"},
      {"measurement": "activity in the 5-HTP potentiation test", "setting": "[3]; mice, oral", "value": "activity"},
      {"measurement": "solubility", "setting": "[1]", "value": 20, "unit": "mg/mL"}
    ]},
    {"compound": "Oc1cccc(COCC2CNCCO2)c1", "note": "(stereo not drawn) [Example 43, 2-[(3-Hydroxybenzyloxy)methyl]morpholine hydrogen oxalate]", "values": [
      {"measurement": "solubility", "setting": "[1]", "value": 100, "unit": "mg/mL"}
    ]},
    {"compound": "Fc1cccc(Cl)c1COCC1CNCCO1", "note": "(stereo not drawn) [Example 15, 2-[(2-Fluoro-6-chlorobenzyloxy)methyl]morpholine hydrogen maleate]", "values": [
      {"measurement": "solubility", "setting": "[1]", "value": 30, "unit": "mg/mL"}
    ]},
    {"compound": "c1ccc2c(c1)OCC(COCC1CNCCO1)O2", "note": "(stereo not drawn) [Example 17, 2-{[(1,4-Benzodioxan-2-yl)methoxy]methyl}morpholine hydrogen maleate]", "values": [
      {"measurement": "solubility", "setting": "[1]", "value": 100, "unit": "mg/mL"}
    ]},
    {"compound": "Cc1ccccc1COCC1CNCCO1", "note": "(stereo not drawn) [Example 5, 2-[(2-Methylbenzyloxy)methyl]morpholine hydrogen maleate]", "values": [
      {"measurement": "ED50", "setting": "[3]; [5]", "value": 16, "unit": "mg/kg"},
      {"measurement": "activity in the 5-HTP potentiation test", "setting": "[3]; mice, oral", "value": "activity"},
      {"measurement": "PERCENTAGE ANALGESIA", "setting": "[4]", "value": 20, "unit": "%"}
    ]},
    {"compound": "Clc1cccc(Cl)c1COCC1CNCCO1", "note": "(stereo not drawn) [Example 14, 2-[(2,6-Dichlorobenzyloxy)methyl]morpholine hydrogen maleate]", "values": [
      {"measurement": "ED50", "setting": "[3]; [5]", "value": 18, "unit": "mg/kg"},
      {"measurement": "PERCENTAGE ANALGESIA", "setting": "[4]", "value": 23, "unit": "%"},
      {"measurement": "solubility", "setting": "[1]", "value": 50, "unit": "mg/mL"}
    ]},
    {"compound": "Nc1ccc(COCC2CNCCO2)cc1", "note": "(stereo not drawn) [Example 44, 2-[(4-Aminobenzyloxy)methyl]morpholine dihydrogen succinate]", "values": [
      {"measurement": "solubility", "setting": "[1]", "value": 60, "unit": "mg/mL"}
    ]}
  ]
}
